Usually melting point stands for the temperature, or range, at which the solid turns liquid.

In the case of `Cc1cc(Cc2ccc(O)cc2)n(C)c1C(=O)c1ccc(Cl)cc1`, the melting point fell in the range of 183 to 185 °C.

Compound `CC[C@H](C)[C@H](NC(=O)O[C@@H](CC(C)C)C(=O)O)C(=O)NC1CCCCC1` displayed a melting point of 193 to 195 °C.

In turn, `CSc1nc(N)nc2c1ncn2COCCO` yielded a melting point of 188 to 191 °C. Take `COc1ccc(O[C@@H]2COc3ccc(-c4ccc5cc(F)ccc5n4)cc3[C@@H]2O)cc1` (relative stereo): the melting point lay within 151 to 154 °C. On to `CN1Cc2ccccc2C(=O)c2cc(CC(=O)O)cc(Cl)c21`, for which the melting point lay within 168 to 170 °C. `CCOCC1=CC(=O)C=C2CCC3C4CCC(=O)C4(C)CCC3C21C` (stereo unspecified) yielded a melting point of 95 to 98 °C. With `CCCN1CCC(=O)C2=C1COc1ccc(OC)cc12`, the melting point was 97 to 100 °C. For `COc1cc2c(cc1F)C(CCCN1CCN(C)CC1)(c1ccccc1F)C(=O)N2S(=O)(=O)c1ccc(OC(C)C)cc1` (stereo unspecified), the melting point was determined as 72 °C.

As for `COc1cc(C)c(C(=O)c2c(Cl)cnc(Cl)c2C(F)(F)F)c(OC)c1OC`, the melting point lay in the range of 106 to 109 °C.

As for `CC(C)(C)OC(=O)N1CCc2cc3ccccc3n2CC1`, the melting point was in the range of 129 to 132 °C. `O=C(O)c1ccc(-n2cc3ccccc3n2)cc1` gave a melting point of 286 to 288 °C. With `O=C(O)c1nc(-c2cc(Oc3ccc(Cl)cc3Cl)c(O)cc2Cl)no1`, the melting point turned out to be 115 °C. `Nc1c(C(=O)c2cccc(Cl)c2)[nH]c2cc(Cl)ccc12` had a melting point of 99 to 102 °C. `CCOC(=O)c1c(C)nc2c(cnn2CCOC)c1N` displayed a melting point of 82 to 85 °C. The compound `CC(C)c1occc1S(=O)(=O)c1ccc(O)cc1` had a melting point of 131 °C. With `CC(=O)Oc1cc(OCC(O)c2ccc3c(c2)C(C)(C)CCC3(C)C)ccc1C(=O)O` (stereo unspecified), the melting point is 119 to 120 °C.

Turning to `O=C(OC[C@@H](O)[C@@H]1CC(c2ccc(-c3ccc(N4C[C@H](Cn5ccnn5)OC4=O)cc3F)cn2)=NO1)c1cccnc1`, the melting point was 210 °C.

In turn, `Cc1cc2c(c3oc4ccccc4c(=O)c13)CC(C(=O)O)O2` (stereo unspecified) had a melting point of 231 to 234 °C. As for `COC(=O)C(=NOCF)c1ccccc1Oc1ncnc(Oc2ccccc2Cl)c1F`, the melting point lay within 153 to 155 °C.

Consider `Cc1cnc(N2CCC(c3ccc(N)cc3)CC2)n1C`, for which the melting point is 219 to 220 °C.

`CS(=O)(=O)c1ccc(-c2cc(C(=O)CCCO)nn2-c2ccccc2)cc1` yielded a melting point of 143 to 145 °C. As for `CN1CCN(CCCNc2ccc(-n3cc(C(F)(F)F)ccc3=O)c(Cl)c2)CC1`, the figure is 129 to 132 °C.

The compound `CN=C1SCC(O)(c2ccc(Cl)c(S(=O)(=O)N(C)C)c2)N1C` (stereo unspecified) came in with a melting point of 157 to 158 °C. Next, `COc1coc2ccc(OCCCCCCN3CCC(O)CC3)cc2c1=O`: 124 to 125 °C.

In the case of `O=C(O)c1ccc(CN(C2CCOCC2)S(=O)(=O)c2ccc(Cl)cc2)cc1`, the melting point was in the range of 218 to 219 °C. As for `CC(=O)CCS(=O)(=O)C(c1ccc(Cl)cc1)c1ccc(Cl)cc1`, the melting point was in the range of 103 to 105 °C. As for `Nc1ccc(N2C(=O)CNC2=O)cc1`, the figure is 230 to 231 °C; as for `CCOP(=O)(OCC)C(CCc1cc(C)nc2cc(-c3ccccc3)nn12)P(=O)(OCC)OCC`, 51 to 52 °C. With `Oc1ccc(O)c(-c2noc3cc(O)ccc23)c1`, the melting point fell in the range of 215 to 217 °C.

Compound `O=C1COc2ccc(C3=Cc4cc(F)ccc4SC3c3ccc(F)cc3)cc2N1` (stereo unspecified) yielded a melting point of 191 to 192 °C. In turn, `Cc1cc(N2CC=C(C(=O)OC(C)C)CC2)c2cccc(-c3ccc(Cl)cc3Cl)c2n1` had a melting point of 131 to 133 °C. Regarding `CC(=O)Oc1ccc(NCc2c(F)c(F)c(C(F)(F)F)c(F)c2F)cc1C(=O)O`, the melting point was 185 to 187 °C. `CCC(C)(C)c1ccc(O)c(C(=O)Nc2ccc([N+](=O)[O-])cc2C)c1` came in with a melting point of 150 to 151 °C. Compound `O=C(O)COc1cccc2c1CCc1sc(SC(c3ccccc3)c3ccccc3)nc1-2` gave a melting point of 176 to 179 °C. The compound `FC(F)(F)c1nc2ccnc(Cl)n2n1` yielded a melting point of 47 to 48 °C. As for `CC(C)n1nc(-c2sc(NC(=O)COc3ccccc3)nc2-c2ccccc2)ccc1=O`, the figure is 243 to 244 °C; as for `C=CCN1C(=O)N(Cc2c(C)c(CN3C(=O)N(CC=C)C(=O)C3(C)C)c(C)c(CN3C(=O)N(CC=C)C(=O)C3(C)C)c2C)C(C)(C)C1=O`, 150 to 155 °C; as for `CS(=O)(=O)c1ccc(C(=O)C2=C(O)C3CCC(C3)C2=O)c([N+](=O)[O-])c1` (stereo unspecified), 170 °C. In turn, `CC(C)c1nsc(N=C(C#N)N(C)C)c1C#N` displayed a melting point of 78 to 79 °C. For `CCC(COC)NC(=O)C(Cc1ccc(OCc2ccccc2)cc1)NC(=O)C(CC(C)C)N(C)CCC(C)C` (stereo unspecified), the melting point is 83 to 85 °C. As for `Nc1cccc(C(=O)Nc2ccc(C(=O)N3CCCc4ccccc43)cc2)c1`, the melting point came out at 206 °C. In the case of `COC(=O)c1c(N)cccc1[N+](=O)[O-]`, the melting point lay within 105 to 107 °C. Compound `O=c1c(Cl)c(Cl)cnn1CC(Cl)=CCl` gave a melting point of 93.7 to 94.6 °C. In the case of `COC(=O)C(Oc1ccc(Cl)cc1)c1ccc(Sc2ccc(Cl)cc2)cc1` (stereo unspecified), the melting point is 90.5 to 94.5 °C. `COc1cccc(SCCF)c1S(N)(=O)=O` registered a melting point of 127 °C. `Cc1ccc(N=CN(C)SN(C2CCCCC2)C2CCCCC2)c(C)c1` returned a melting point of 97 to 98 °C.

`COc1cc(COc2nn(Cc3ccccc3)cc2CO)ccc1OCc1nc(-c2ccco2)oc1C` had a melting point of 104 to 105 °C. `CC(C)Nc1cccnc1N1CCN(C(=O)c2ccc(C(=O)NCCCN3CCOCC3)cc2)CC1`: the melting point was found to be 103 °C. Next, `CC(SC1COC(C=CC=Cc2ccc(C#N)cc2F)OC1)C(O)(Cn1cncn1)c1ccc(F)cc1F` (stereo unspecified): 111 to 112 °C; `Cc1cc(C)cc(-c2nc(N)sc2-c2ccnc(NC(=O)c3ccccc3)c2)c1`: 120 to 123 °C. As for `O=C1Nc2ccccc2S(=O)(=O)c2ccccc21`, the melting point was in the range of 284 to 286 °C.

As for `COc1ccc(C=O)cc1I`, the melting point was in the range of 104 to 107 °C. Consider `O=C(O)C1Oc2cc(Cl)c(S(=O)(=O)c3cccc(Cl)c3)cc2O1` (stereo unspecified), for which the melting point fell in the range of 151 to 153 °C. In the case of `COc1c(CC(C(=O)O)C(=O)O)cccc1C(=O)c1ccc(Cl)cc1`, the melting point came to 142 °C. On to `Nc1ncnc2c1c(-c1ccc(Oc3ccccc3O)cc1)cn2C1CCCC1`, for which the melting point is 107 to 109 °C. As for `COc1ccc(-c2[nH]nc3c2C(=O)c2c(NC(=O)CN)cccc2-3)cc1`, the melting point was above 300 °C. `CNc1nc(Nc2ccc(S(C)=O)cc2)ncc1[N+](=O)[O-]` (stereo unspecified) yielded a melting point of 288 °C. Regarding `COc1ccc(Cl)cc1-n1c(N(C)C)nc2cc(C(F)(F)F)ccc21`, the melting point was in the range of 230 to 234 °C.

Consider `Cc1cccc(-n2nc3c(c2OS(=O)(=O)C(F)(F)F)CCC3)n1`, for which the melting point lay within 146 to 148 °C. Take `CC(=O)OC(OC(C)=O)c1ccc(C(OC(C)=O)(C(F)(F)F)C(F)(F)F)cc1`: the melting point fell in the range of 93 to 94.6 °C. In turn, `CSc1nc(C)cc2nccn12` showed a melting point of 67 to 69 °C.

Source of the values: a melting point compilation (Tetko et al.; mined from patent text by program, amines drawn as free bases though some values may be those of a salt).
